Laboratory results published in US6683184B2, “Piperazine derivatives and process for the preparation thereof” (Samjin Pharmaceutical Co., Ltd., priority 1999, dated 2004).
≈ marks a conversion by molar mass, not a printed value.

Legend:
Assay type in all cases: cell-based
SKMEL-2 (human melanoma) = experiment: In vitro antitumor effect against human tumor cell lines, SRB assay, SKMEL-2; conditions: SK-MEL-2 cells, 48 hours; for IC50: Homo sapiens, read-out: ED50 SK-MEL-2
Description: (§1) In vitro antitumor effect against human tumor cell lines.
(§2) a. Human solid tumor cell lines, A549(non-small lung cell), SKMEL-2(melanoma), HCT-15(colon), SKOV-3(ovarian), XF-498(CNS) were cultured at 37° C. in 5% CO2 incubators using RPMI 1640 media containing 10% FBS, while they were transfer-cultured successively once or twice per week. Cell cultures were dissolved in a solution of 0.25% trypsin and 3 mM CDTA PBS(−) and then cells were separated from media which the cells were sticked on.
(§3) b. 5×10^3˜2×10^4 cells were added into each well of 96-well plate and cultured in 5% CO2 incubator, at 37° C., for 24 hours.
(§4) c. Each sample drug was dissolved in a little DMSO and diluted with the used medium to a prescribed concentration for experiments, wherein the final concentration of DMSO was controlled below 0.5%.
(§5) d. Medium of each well cultured for 24 hours as above b. was removed by aspiration. Each 200 μl of drug samples prepared in c. was added into each well and the wells were cultured for 48 hours. Tz(time zero) plates were collected at the point of time drugs were added.
(§6) e. According to the SRB assay method, cell fixing with TCA, staining with 0.4% SRB solution, washing with 1% acetic acid and elution of dye with 10 mM Tris solution were carried out on Tz plates and culture-ended plates, whereby OD values were measured at 520 nm.
(§7) a. Time zero(Tz) value was determined with measuring the SRB protein amounts of the Tz plates collected at the point of time drugs were added.
(§8) b. Control value(C) was determined with the OD values of wells untreated with a drug.
(§9) c. Drug-treated test value(T) was determined with the OD values of drug-treated wells.
(§10) d. Effects of drugs were estimated with growth stimulation, net growth inhibition, net killing etc., being calculated from Tz, C and T.
(§11) e. If T≧Tz, cellular response function was calculated by 100×(T−Tz)/(C−Tz), and if T<Tz, by 100×(T−Tz)/Tz.

HCT-15 (human colon) = experiment: In vitro antitumor effect against human tumor cell lines, SRB assay, HCT-15; conditions: HCT 15 cells, 48 hours; for IC50: Homo sapiens, read-out: ED50 HCT 15
Description: as §1, §2, §3, §4, §5, §6, §7, §8, §9, §10, §11

[1] = tested on: P388 (mouse lymphoid neoplasma cell); experiment: In vitro antitumor effects against animal leukemia cells, dye exclusion assay; conditions: 48 hours, trypan blue dye exclusion, read-out: P388 (IC50, concentration showing 50% cell growth inhibition compared with the control)
Description: In vitro antitumor effects against animal leukemia cells.
Tumor cell line: P388 (mouse lymphoid neoplasma cell)
B. Method: Dye Exclusion Assay.
1) Concentrations of P388 cells being cultured in RPMI 1640 media containing 10% FBS were regulated to 1×10^6 cells/ml.
2) Sample drugs of respective concentrations diluted in the ratio of log doses were added into each cell culture and cultured at 37° C., for 48 hours, in […] incubator, and then viable cell numbers were measured by dye exclusion test using trypan blue.

XF 498 (human CNS) = experiment: In vitro antitumor effect against human tumor cell lines, SRB assay, XF 498; conditions: 48 hours; for IC50: Homo sapiens, XF498, XF-498 cells, read-out: ED50 XF-498; for ED50 XF-498: XF-498 cells
Description: as §1, §2, §3, §4, §5, §6, §7, §8, §9, §10, §11

SKOV-3 (human ovarian) = experiment: In vitro antitumor effect against human tumor cell lines, SRB assay, SKOV-3; conditions: SK-OV-3 cells, 48 hours; for IC50: Homo sapiens, read-out: ED50 SK-OV-3
Description: as §1, §2, §3, §4, §5, §6, §7, §8, §9, §10, §11

[2] = tested on: A549 (human non-small lung cell); experiment: In vitro antitumor effect against human tumor cell lines, SRB assay, A549; conditions: A549 cells, 48 hours; for IC50: Homo sapiens, read-out: ED50 A 549
Description: as §1, §2, §3, §4, §5, §6, §7, §8, §9, §10, §11

Row | Compound | IC50 (SKMEL-2 (human melanoma)) [ng/mL] | IC50 (HCT-15 (human colon)) [ng/mL] | IC50 [1] [ng/mL] | IC50 (XF 498 (human CNS)) [ng/mL] | IC50 (SKOV-3 (human ovarian)) [ng/mL] | IC50 [2] [ng/mL] | ED50 SK-MEL-2 (SKMEL-2 (human melanoma)) [ng/mL] | ED50 HCT 15 (HCT-15 (human colon)) [ng/mL] | ED50 XF-498 (XF 498 (human CNS)) [ng/mL] | ED50 SK-OV-3 (SKOV-3 (human ovarian)) [ng/mL] | ED50 A 549 [2] [ng/mL]
1 | COc1nc2ccccc2nc1NC(=O)N1CCN(c2cc([N+](=O)[O-])cc([N+](=O)[O-])c2)CC1 [Example 48, 1-[(2-Methoxyquinoxalin-3-yl)aminocarbonyl]-4-(3,5-dinitrophenyl)piperazine] | 0.3 (≈ 0.000662 µM) | 2 (≈ 0.00441 µM) | 390 (≈ 0.86 µM) | 4 (≈ 0.00882 µM) | 7 (≈ 0.0154 µM) | 1 (≈ 0.00221 µM) | – | – | – | – | –
2 | COc1cc(OC)cc(N2CCN(C(=S)Nc3nc(C)c(C)nc3OC)CC2)c1 [Example 28, 1-[(5,6-Dimethyl-2-methoxypyrazin-3-yl)aminothiocarbonyl]-4-(3,5-dimethoxyphenyl)piperazine] | < 0.1 | 0.1 (≈ 0.00024 µM) | 40 (≈ 0.0958 µM) | 0.1 (≈ 0.00024 µM) | 0.6 (≈ 0.00144 µM) | 0.1 (≈ 0.00024 µM) | – | – | – | – | –
3 | COc1ccccc1N1CCN(C(=O)Nc2nc(C)c(C)nc2OC)CC1 [Example 2, 1-[(5,6-Dimethyl-2-methoxypyrazin-3-yl)aminocarbonyl]-4-(2-methoxyphenyl)piperazine] | 29 (≈ 0.0781 µM) | 19 (≈ 0.0512 µM) | 300 (≈ 0.808 µM) | 84 (≈ 0.226 µM) | 88 (≈ 0.237 µM) | 32 (≈ 0.0862 µM) | – | – | – | – | –
4 | COc1nc(C)c(C)nc1NC(=S)N1CCN(c2cc(C)cc(C)c2)CC1 [Example 30, 1-[(5,6-Dimethyl-2-methoxypyrazin-3-yl)aminothiocarbonyl]-4-(3,5-dimethylphenyl)piperazine] | < 0.1 | 0.7 (≈ 0.00182 µM) | 70 (≈ 0.182 µM) | 0.5 (≈ 0.0013 µM) | 0.7 (≈ 0.00182 µM) | 0.6 (≈ 0.00156 µM) | – | – | – | – | –
5 | COc1nc(C)c(C)nc1NC(=O)N1CCN(c2cc(Cl)cc(Cl)c2)CC1 [Example 11, 1-[(5,6-Dimethyl-2-methoxypyrazin-3-yl)aminocarbonyl]-4-(3,5-dichlorophenyl)piperazine] | – | – | 20 (≈ 0.0487 µM) | – | – | – | – | – | – | – | –
6 | COc1cc(OC)cc(N2CCN(C(=S)Nc3nc4ccccc4nc3OC)CC2)c1 [Example 64, 1-[(2-Methoxyquinoxalin-3-yl)aminothiocarbonyl]-4-(3,5-dimethoxyphenyl)piperazine] | 11 (≈ 0.025 µM) | 32 (≈ 0.0728 µM) | 340 (≈ 0.774 µM) | 14 (≈ 0.0319 µM) | 57 (≈ 0.13 µM) | 19 (≈ 0.0432 µM) | – | – | – | – | –
7 | COc1nc(C)c(C(C)=O)cc1N=C(NO)N1CCN(c2cc(C)cc(C)c2)CC1 [Example 132, N-Hydroxy-N′-(5-acetyl-2-methoxy-6-methylpyridin-3-yl)-[4-(3,5-dimethylphenyl)piperazin-1-yl]carboxyimidamide] | – | – | – | – | – | – | 1 (≈ 0.00243 µM) | 1 (≈ 0.00243 µM) | 2 (≈ 0.00486 µM) | 7 (≈ 0.017 µM) | 11 (≈ 0.0267 µM)
8 | COc1nc2ccccc2cc1N=C(NO)N1CCN(c2cccc(Cl)c2)CC1 [Example 176, N-Hydroxy-N′-(2-methoxyquinolin-3-yl)-[4-(3-chlorophenyl)-piperazin-1-yl]carboxyimidamide] | – | – | – | – | – | – | 0.3 (≈ 0.000728 µM) | 0.1 (≈ 0.000243 µM) | 0.1 (≈ 0.000243 µM) | 0.9 (≈ 0.00219 µM) | 1.2 (≈ 0.00291 µM)
9 | COc1cc2ccccc2cc1NC(=O)N1CCN(c2cc(Cl)cc(Cl)c2)CC1 [Example 89, 1-[(2-Methoxynaphth-3-yl)aminocarbonyl]-4-(3,5-dichlorophenyl)piperazine] | 30 (≈ 0.0697 µM) | 50 (≈ 0.116 µM) | – | 40 (≈ 0.093 µM) | 200 (≈ 0.465 µM) | 40 (≈ 0.093 µM) | – | – | – | – | –
10 | COc1nc2ccccc2nc1NC(=O)N1CCN(c2ccccc2SC)CC1 [Example 51, 1-[(2-Methoxyquinoxalin-3-yl)aminocarbonyl]-4-(2-methylt-hiophenyl)piperazine] | – | – | – | – | – | – | 280 (≈ 0.684 µM) | 180 (≈ 0.44 µM) | 630 (≈ 1.54 µM) | 680 (≈ 1.66 µM) | 370 (≈ 0.904 µM)
11 | COc1nc2ccccc2cc1N=C(NO)N1CCN(c2cc(C)cc(C)c2)CC1 [Example 173, N-Hydroxy-N′-(2-methoxyquinolin-3-yl)-[4-(3,5-dimethylphenyl)-piperazin-1-yl]carboxyimidamide] | – | – | – | – | – | – | 150 (≈ 0.37 µM) | 180 (≈ 0.444 µM) | 210 (≈ 0.518 µM) | 860 (≈ 2.12 µM) | 400 (≈ 0.986 µM)
12 | COc1cc(OC)cc(N2CCN(C(=Nc3cc(C(C)=O)c(C)nc3OC)NO)CC2)c1 [Example 133, N-Hydroxy-N′-(5-acetyl-2-methoxy-6-methylpyridin-3-yl)-[4-(3,5-dimethoxyphenyl)piperazin-1-yl]carboxyimidamide] | – | – | – | – | – | – | 0.1 (≈ 0.000225 µM) | 0.1 (≈ 0.000225 µM) | 0.1 (≈ 0.000225 µM) | 0.1 (≈ 0.000225 µM) | 0.1 (≈ 0.000225 µM)
13 | 1-[(5,6-Dichloroethyl-2-methoxypyrazin-3-yl)aminocarbonyl]-4-(3,5-dimethoxyphenyl)piperazine [Example 35] | – | – | – | – | – | – | <0.1 | 0.1 | 0.1 | 0.7 | 0.1
14 | COc1nc2ccccc2nc1NC(=O)N1CCN(c2ccccc2C(C)C)CC1 [Example 40, 1-[(2-Methoxyquinoxalin-3-yl)aminocarbonyl]-4-(2-isoprop-ylphenyl)piperazine] | 370 (≈ 0.912 µM) | 390 (≈ 0.962 µM) | – | 810 (≈ 2 µM) | 1010 (≈ 2.49 µM) | 410 (≈ 1.01 µM) | – | – | – | – | –
15 | COC(=O)c1cc(N=C(NO)N2CCN(c3cc(OC)cc(OC)c3)CC2)c(OC)nc1C [Example 118, N-Hydroxy-N′-(5-methoxycarbonyl-2-methoxy-6-methylpyridin-3-yl)-[4-(3,5-dimethoxyphenyl)piperazin-1-yl]carboxyimidamide] | – | – | – | – | – | – | 19 (≈ 0.0413 µM) | 0.2 (≈ 0.000435 µM) | 17 (≈ 0.037 µM) | 32 (≈ 0.0696 µM) | 57 (≈ 0.124 µM)
16 | COc1nc2ccccc2nc1NC(=O)N1CCN(c2cc(F)cc(F)c2)CC1 [Example 46, 1-[(2-Methoxyquinoxalin-3-yl)aminocarbonyl]-4-(3,5-difluo-rophenyl)piperazine] | – | – | – | – | – | – | 3 (≈ 0.00751 µM) | 2 (≈ 0.00501 µM) | 1 (≈ 0.0025 µM) | 7 (≈ 0.0175 µM) | 2 (≈ 0.00501 µM)
17 | COc1cc(C)c(C)cc1N=C(NO)N1CCN(c2cc(F)cc(F)c2)CC1 [Example 182, N-Hydroxy-N′-(4,5-dimethyl-2-methoxyphenyl-1-yl)-[4-(3,5-difluorophenyl)piperazin-1-yl]carboxyimidamide] | – | – | – | – | – | – | 33 (≈ 0.0845 µM) | 6 (≈ 0.0154 µM) | 103 (≈ 0.264 µM) | 81 (≈ 0.207 µM) | 292 (≈ 0.748 µM)
18 | COc1nc(C)c(C)nc1NC(=O)N1CCN(c2ccccc2SC)CC1 [Example 14, 1-[(5,6-Dimethyl-2-methoxypyrazin-3-yl)aminocarbonyl]-4-(2-methylthiophenyl)piperazine] | 283 (≈ 0.73 µM) | 67 (≈ 0.173 µM) | – | 340 (≈ 0.877 µM) | 677 (≈ 1.75 µM) | 204 (≈ 0.526 µM) | – | – | – | – | –
19 | COc1cc(C)c(C)cc1N=C(NO)N1CCN(c2ccccc2)CC1 [Example 177, N-Hydroxy-N′-(4,5-dimethyl-2-methoxyphenyl-1-yl)-(4-phenylpiperazin-1-yl)carboxyimidamide] | – | – | – | – | – | – | 0.3 (≈ 0.000846 µM) | 0.1 (≈ 0.000282 µM) | 0.4 (≈ 0.00113 µM) | 0.8 (≈ 0.00226 µM) | 0.6 (≈ 0.00169 µM)
20 | COc1nc2ccccc2nc1N(C)C(=O)N1CCN(c2cc(C)cc(C)c2)CC1 [Example 55, 1-[(2-Methoxyquinoxalin-3-yl)N-methylaminocarbonyl]-4-(3,5-dimethylphenyl)piperazine] | 220 (≈ 0.543 µM) | 330 (≈ 0.814 µM) | – | 410 (≈ 1.01 µM) | 490 (≈ 1.21 µM) | 340 (≈ 0.838 µM) | – | – | – | – | –
